According to patent publication US6136845A (The Texas A&M University System, priority 1998, dated 2000):
Read-outs that look alike come from different tables or passages of the source.

How the values were obtained:
[1] = system: MCF-7 human breast cancer cell lines; settings: MCF-7 cells in culture; cited from earlier work
[2] = system: 17β-estradiol (E2)-induced responses; settings: rats, mice; cited from earlier work
ER = settings: 21 to 25 day-old female Sprague-Dawley rat uterus; cited from earlier work
CYP1A1 = settings: result in words; cited from earlier work
PR = settings: 21 to 25 day-old female Sprague-Dawley rat uterus; cited from earlier work
[3] = in vivo; cited from earlier work
mammary tumor = settings: rodent models; cited from earlier work
uterine cytosolic PR = assay: Uterine cytosolic PR levels in ovariectomized rats (Example 4); type: in vivo, Sprague-Dawley rat; settings: 0.4 mg/kg/day each oral, 20 days
Excerpt: (§1) Rats were euthanized on day 21.

uterus [4] = assay: Uterine wet weight in ovariectomized rats (Example 4); type: in vivo, Sprague-Dawley rat; settings: 0.4 mg/kg/day each oral, 20 days
Excerpt: (§3) Methods: Rats were ovariectomized at 97 days of age, and treatments began at 117 days of age. […] Rats were euthanized on day 21.

[5] = system: uterine progesterone receptor; assay: Uterine progesterone receptor in ovariectomized rats (Example 6, Table 6); type: in vivo, Sprague-Dawley rat; settings: tamoxifen 0.4, 6-MCDF 0.8 mg/kg/day oral, 20 days
Excerpt: as §1

uterine peroxidase [6] = assay: Uterine peroxidase activity in ovariectomized rats (Example 6, Table 6); type: in vivo, Sprague-Dawley rat; settings: tamoxifen 0.4, 6-MCDF 0.8 mg/kg/day oral, 20 days
Excerpt: as §1

femurs = assay: Bone effects in ovariectomized rats (femur weight and length); type: in vivo, Sprague-Dawley rat; settings: tamoxifen 0.4, 6-MCDF 0.8 mg/kg/day oral, 20 days
Protocol: The ovariectomized rat is used as a model for osteoporosis.
Rats were euthanized on day 21. After uteri were excised and processed, both left and right femurs were excised and the length measured with calipers. […] Wet weight was measured after residual connective tissue was stripped away. Dry weight was measured after the bones were dried for 12 ours at 130° C.

bone tissue = settings: cited from earlier work
endometrial tumor = settings: cited from earlier work
[7] = Body and organ weights (Example 6, Table 7)
Protocol: For Table 7 and FIGS. 3 and 3B, exact aged virgin female Sprague-Dawley rats were dosed on day 55 in the afternoon with 20 mg/rat 7,12-dimethylbenz[a]anthacene in a volume of 0.5 ml/rat corn oil (rats weigh approximately 165 g, resulting in 120 mg/kg DMBA and 3 ml/kg corn oil).

[8] = Body and organ weights (Examples 4 and 5)
Protocol: as §3
For the control vehicle and the MCDF vehicle ethanol was added (5% v/v) and then evaporated away.

uterus [9] = assay: Uterine wet weight in ovariectomized rats (Example 6, Table 6); type: in vivo, Sprague-Dawley rat; settings: tamoxifen 0.4, 6-MCDF 0.8 mg/kg/day oral, 20 days
Excerpt: as §1

uterus [10] = settings: cited from earlier work
[11] = Body and organ weights in DMBA-treated rats
Protocol: (§2) Female virgin Sprague-Dawley rats were obtained from Harlan (Houston) and were allowed to acclimate for 10 days, allowed access to food and water ad libitum, and maintained on a 12 h light/dark schedule. Mammary tumors were induced in 50±3 day old-rats by administering a single gavage dose of 20 mg DMBA in 0.5 ml corn oil. […] Tumor sizes were measured with calipers, and volumes were calculated by formula (length×width×depth)/6π and are expressed as percent control. One week after their last injection, rats were euthanized by asphyxiation. All tumors were removed, weighed, and sectioned. One portion was frozen in liquid nitrogen for PCR analysis; one portion was placed in 10% formalin for histopathological analysis; and the majority was immediately homogenized for the preparation of microsomal and cytosolic fractions. Livers were perfused and weighed, and cytosol and microsomes were prepared as previously described.

uterine peroxidase [12] = assay: Uterine peroxidase assay in ovariectomized rats (Example 4); type: in vivo, Sprague-Dawley rat; settings: 0.4 mg/kg/day each oral, 20 days
Excerpt: as §1

mammary tumors = assay: DMBA-induced rat mammary tumor model, tumor volume and weight; type: in vivo, Sprague-Dawley rat; settings: 20 days
Protocol: as §2, with “One week after their last injection, rats were euthanized by asphyxiation.” left out

[13] = each drug 0.4 mg/kg/day by gavage, DMBA rats

For `Clc1cc2c(cc1Cl)Oc1cc(Cl)c(Cl)cc1O2` [TCDD, 2,3,7,8-tetrachlorodibenzo-p-dioxin, reference compound], which antiestrogenic activity [1] is on record?
The antiestrogenic activity was “effective antiestrogen”.

And the antiestrogenic activity [2]?
The antiestrogenic activity was “effective antiestrogen”.

What about the “nuclear and cytosolic ER binding” value (ER) of the same molecule?
Its value is “dose-dependent decrease”.

And the “induction of CYP1A1” value (CYP1A1)?
The value was “induces toxic and biochemical responses”.

And the “nuclear and cytosolic progesterone receptor (PR) binding” value (PR)?
The value was “dose-dependent decrease”.

And the hepatocarcinogenicity [3]?
The hepatocarcinogenicity was “too hepatocarcinogenic”.

And the mammary tumor growth (mammary tumor)?
Its mammary tumor growth is “inhibit mammary tumor growth”.

What does the source list for `CC/C(=C(\c1ccccc1)c1ccc(OCCN(C)C)cc1)c1ccccc1` [tamoxifen, reference compound]?
Uterine cytosolic PR levels (fmol/mg protein) (uterine cytosolic PR; control 308 ± 142): 674 ± 52 fmol/mg protein; Uterine cytosolic PR levels (fmol/uterus) (uterine cytosolic PR; control 1100 ± 508): 4501 ± 350 fmol/uterus; Uterine cytosolic PR levels (fmol/g uterus) (uterine cytosolic PR; control 8368 ± 3868): 21301 ± 1655 fmol/g uterus; Uterine Wet Weight (% body wt) (uterus [4]; control 0.045 ± 0.002): 0.085 ± 0.004 % body wt; Uterine Wet Weight (uterus [4]; control 0.131 ± 0.006): 0.211 ± 0.011 g; Uterine Progesterone Receptor (fmol/mg protein) ([5]; control 198 ± 15): 790 ± 21 fmol/mg protein; Uterine Progesterone Receptor (fmol/uterus) ([5]; control 765 ± 69): 9062 ± 244 fmol/uterus; Uterine Progesterone Receptor (fmol/g uterus) ([5]; control 4462 ± 343): 43666 ± 1175 fmol/g uterus; Uterine Peroxidase Activity (Absorbance/g uterus) (uterine peroxidase [6]; per g uterus): 31.94 ± 0.26 Fold Increase over control; Uterine Peroxidase Activity (Absorbance/mg protein) (uterine peroxidase [6]; per mg protein): 26.76 ± 0.22 Fold Increase over control; Uterine Peroxidase Activity (Absorbance/uterus) (uterine peroxidase [6]; per uterus): 38.66 ± 0.32 Fold Increase over control; Dry bone weight (femurs; control 0.180 ± 0.005): 0.216 ± 0.005 % body weight; Wet bone weight (femurs; control 0.347 ± 0.009): 0.403 ± 0.007 % body weight; effect in bone (bone tissue; cycling rats (Takahashi et al. 1996)): no effect; effect in bone tissue (bone tissue; ovariectomized rats (Turner et al. 1987)): acted as an estrogen agonist; risk for endometrial tumor formation (endometrial tumor; 2843 patients, 20 mg/day (Fisher et al. 1994)): 7.5 fold; risk for endometrial tumors (endometrial tumor; Danish trial, 30 mg/day for one year): 3.3 fold; risk for endometrial tumors (endometrial tumor; Scottish and Manchester England trials, 20 mg/day): no increased risk; risk for endometrial tumors (endometrial tumor; South-Swedish trial, 30 mg/day for one year): 2.0 fold; risk for endometrial tumors (endometrial tumor; Stockholm trial, 40 mg/day for 2 years): approximately 6 fold; risk/incidence of endometrial cancer (endometrial tumor; women, breast cancer treatment, result in words): Risk of endometrial cancer increases; Rat weight at start of treatments ([7]; Table 7, baseline, control 255 ± 3): 261 ± 9 g; Spleen weight (% body weight) ([7]; Table 7, control 0.289 ± 0.018): 0.254 ± 0.018 % body weight; Kidney weight (% body weight) ([7]; Table 7, control 0.334 ± 0.010): 0.369 ± 0.017 % body weight; Heart weight (% body weight) ([7]; Table 7, control 0.360 ± 0.010): 0.357 ± 0.023 % body weight; Rat weight prior to euthanasia ([7]; Table 7, control 295 ± 11): 242 ± 6 g; Rat weight at start of treatments ([8]; Table 5, baseline, control 273.1 ± 8.1): 275.7 ± 7.6 g; Spleen wet weight (% body wt) ([8]; Table 5, control 0.247 ± 0.007): 0.252 ± .008 % body wt; kidney weight (% body wt) ([8]; Table 5, control 0.318 ± 0.010): 0.334 ± 0.008 % body wt; Heart weight (% body wt) ([8]; Table 5, control 0.319 ± 0.006): 0.346 ± 0.005 % body wt; Spleen wet weight ([8]; Table 5, control 0.72O ± 0.012): 0.631 ± 0.037 g; Kidney weight ([8]; Table 5, control 0.933 ± 0.038): 0.837 ± 0.045 g; Heart weight ([8]; Table 5, control 0.935 ± 0.039): 0.864 ± 0.031 g; Liver weight (% body wt) ([8]; Table 5, control 4.06 ± 0.23): 4.26 ± 0.26 % body wt; Liver weight ([8]; Table 5, control 11.88 ± 0.78): 10.70 ± 0.92 g; Rat weight prior to euthanasia ([8]; Table 5, control 293.2 ± 10.9): 249.8 ± 7.6 g; Uterine wet weight (% body weight) (uterus [9]; control 0.0583 ± 0.0055): 0.0857 ± 0.0036 % body weight; Uterine wet weight (uterus [9]; control 0.171 ± 0.15): 0.208 ± 0.009 g; uterine hyperplasia (uterus [10]; most animal models): induced uterine hyperplasia; rat uterine wet weight (uterus [10]; rat, result in words): significant dose dependent increases; Uterine Wt. ([11]; 0.4 mg/kg/day each, 20 days, control 0.212 ± 0.017): 0.142 ± 0.006 % BW; Spleen Wt. ([11]; 0.4 mg/kg/day each, 20 days, control 0.257 ± .022): 0.236 ± 0.019 % BW; Kidney weight ([11]; 0.4 mg/kg/day each, 20 days, control 0.349 ± 0.007): 0.386 ± 0.012 % BW; Liver weight ([11]; 0.4 mg/kg/day each, 20 days, control 3.13 ± 0.12): 3.64 ± 0.18 % BW; Final Body Weight ([11]; 0.4 mg/kg/day each, 20 days, control 250 ± 5): 243 ± 4 g; Heart weight ([11]; rat, in vivo): 0.420 ± 0.018 % BW; Uterine Peroxidase Assay (Abs/g uterus) (uterine peroxidase [12]; per g uterus): 17.7 ± 0.45 Fold Increase over Control; Uterine Peroxidase Assay (Abs/mg protein) (uterine peroxidase [12]; per mg protein): 17.5 ± 0.60 Fold Increase over Control; Uterine Peroxidase Assay (Abs/uterus) (uterine peroxidase [12]; per uterus): 28.41 ± 0.73 Fold Increase over Control; Tumor Wt (% Control) (mammary tumors; 0.4 mg/kg/day each, control 100 ± 27.7): 61.5 ± 30.4 % Control; Final Tumor Volume (% Control) (mammary tumors; 0.4 mg/kg/day each, control 100 ± 31.5): 41.5 ± 20 % Control; Final Tumor Volume (mammary tumors; 0.4 mg/kg/day each, control 2734 ± 956): 1135 ± 587 mm^3; % Inhibition tumor volume (mammary tumors; [13]): 58.5%; % Inhibition tumor weight (mammary tumors; [13]): NS decrease
